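Compound exposure: 48 hours, 5 concentrations, 96-well plates. The concentration for 50% growth inhibition is given as GI50. At the TGI there is no net growth.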
Tests used:
Assay in all cases: DTP human tumour cell line panel, 48 h
[1] = system: NCI-H23 lung
[2] = system: A498 renal
[3] = system: MOLT-4 leukemia
[4] = system: UO-31 renal
[5] = system: M14 melanoma
[6] = system: SR leukemia
[7] = system: A549 NSCLC
[8] = system: PC-3 prostate
[9] = system: T-47D breast
[10] = system: HL-60(TB) leukemia

| SMILES | TGI [1] [µM] | TGI [2] [µM] | TGI [3] [µM] | TGI [4] [µM] | TGI [5] [µM] | TGI [6] [µM] | TGI [7] [µM] | TGI [8] [µM] | TGI [9] [µM] | TGI [10] [µM] | GI50 [1] [µM] | GI50 [2] [µM] | GI50 [3] [µM] | GI50 [4] [µM] | GI50 [5] [µM] | GI50 [6] [µM] | GI50 [7] [µM] | GI50 [8] [µM] | GI50 [9] [µM] | GI50 [10] [µM] |
| --- | --- | --- | --- | --- | --- | --- | --- | --- | --- | --- | --- | --- | --- | --- | --- | --- | --- | --- | --- | --- |
| CCN(CC)c1ccc(/C=C(\C#N)c2nc(N)nc(N3N=C(C)CC3(C)C)n2)cc1 | > 80.9 | 35.2 | > 100 | 55.4 | > 45.5 | > 100 | 32.3 | > 100 | 39.6 | > 100 |  |  |  |  |  |  |  |  |  |  |
| CCN(CC)C(=S)SS(=O)(=O)c1ccccc1C(=O)O | > 100 | > 100 | > 100 | > 100 | > 100 | > 100 | > 100 | > 100 | > 100 | > 42 |  |  |  |  |  |  |  |  |  |  |
| Cc1ccc2c(c1)SSSSS2 | 43 | 35.1 | > 100 | 33 | 58.6 | > 100 | 48.7 | 57.8 | 29 | 42.2 |  |  |  |  |  |  |  |  |  |  |
| CSc1ccc2c(cc1=O)[C@@H](NC(C)=O)CCc1cc(O)c(O)c(O)c1-2 | 44.9 | > 100 | > 100 | 42.8 | 36 | > 100 | 45 | > 100 | > 100 | > 100 |  |  |  |  |  |  |  |  |  |  |
| CN1C2CCC1CC(OC(c1ccccc1)c1ccccc1)C2 (stereo not given) | 83.3 | 28.4 | 73.6 | 40.1 | 27.9 | 42 | 39.7 | 37.3 | 80.1 | 36.2 |  |  |  |  |  |  |  |  |  |  |
| CCc1ccc(-c2nnc(COc3ccc(-c4nc5ccc(C)cc5[nH]4)cc3OC)o2)cc1 | 54.4 | 4.72 | > 100 | 3.17 | 5.84 | 5.22 | > 100 | > 100 | 5.22 | 4.26 | 4.52 | 1.97 | 3.26 | 1.63 | 2.27 | 2.08 | 4.21 | 2.96 | 2.15 | 2.01 |
| C=C(O)c1ccccc1C#Cc1ccccc1C(=O)OC | > 10 | > 10 | > 10 | > 10 | > 10 | > 10 | > 10 | > 10 | > 10 | > 10 |  |  |  |  |  |  |  |  |  |  |
| CN(C1=NCCO1)c1cccc2ccccc12 | > 10 | > 10 | > 10 | > 10 | > 10 | > 10 | > 10 | > 10 | > 10 | > 10 |  |  |  |  |  |  |  |  |  |  |
| O=C(c1ccccc1)c1ccc(C(c2c(O)c3ccccc3oc2=O)c2c(O)c3ccccc3oc2=O)cc1 | 49 | 62.6 | 53.9 | 33 | 63.3 | 59.3 | > 82.5 | > 74.5 | > 100 | > 100 |  |  |  |  |  |  |  |  |  |  |
| CC(=O)N=C(N=Nc1c(O)[nH]c2ccc(C)cc12)NC(C)=O | > 100 | > 100 | > 100 | > 100 | > 100 | > 100 | > 100 | > 100 | > 100 | > 100 |  |  |  |  |  |  |  |  |  |  |
| CCOP(=O)(OCC)C(NC(=O)OCC(Cl)(Cl)Cl)n1nnc(C(=O)OC)c1C(=O)OC (stereo not given) | > 100 | > 100 | > 100 | > 100 | > 100 | > 100 | > 100 | > 100 | > 100 | > 100 |  |  |  |  |  |  |  |  |  |  |
| COc1c2c(c(OC)c3c1c(=O)c1ccccc1n3C)OCO2 | > 100 | > 100 | > 31.6 | > 100 | > 100 | > 29.7 | > 100 | > 100 | > 100 | > 25.6 |  |  |  |  |  |  |  |  |  |  |
| Clc1ccc(N=C/C=C/Nc2ccc(Cl)cn2)nc1 | 32.8 | 34.7 | 19.4 | 29.2 | 30.2 | 6.69 | 29.1 | 27.6 | 40.9 | 3.91 |  |  |  |  |  |  |  |  |  |  |
| S=c1ssc2c3ssc(=S)c3n(Cc3ccccc3)c12 | > 100 | > 100 | 38.9 | 67 | > 100 | > 100 | > 100 | > 100 | > 100 | > 100 |  |  |  |  |  |  |  |  |  |  |
| CCOC(=O)C1(C(=O)OCC)C[C@]23OCCC(=O)[C@H]2[C@H]2C(=O)OC(C)(C)O[C@]23C1 | > 100 | > 100 | > 100 | > 100 | > 100 | > 100 | > 100 | > 100 | > 100 | > 100 |  |  |  |  |  |  |  |  |  |  |
| COc1ccc(OC)c(C2CCc3nc4nc(N)nc(N)c4cc3C2)c1 (stereo not given) | 38.3 | 27.5 | 5.3 | 15.8 | 3.44 | 7.06 | 31.4 | 11.5 | 3.78 | 7.86 |  |  |  |  |  |  |  |  |  |  |
| CN(C)c1nc(N(C)C)nc(N(C)C)n1 | > 143 | > 150 | 136 | > 150 | > 150 | > 150 | > 150 | > 150 | > 150 | > 148 |  |  |  |  |  |  |  |  |  |  |
| COc1ccc2[nH]c(CCNC(=O)c3cc([N+](=O)[O-])cc([N+](=O)[O-])c3)cc2c1 | > 100 | > 100 | > 100 | > 100 | > 100 | > 100 | > 100 | > 100 | 90.6 | > 100 |  |  |  |  |  |  |  |  |  |  |
| Cn1c(=O)oc2cc(C(=O)CSC(=S)N3CCCCCC3)ccc21 | > 100 | > 100 | > 100 | > 100 | > 100 | > 100 | > 100 | > 100 | > 100 | > 100 |  |  |  |  |  |  |  |  |  |  |
| Brc1cccc(/C=C/CN2CCN(CCOC(c3ccccc3)c3ccccc3)CC2)c1 | 36.9 | 32 | 31.1 | 27.7 | 27.1 | 28.3 | 31.6 | 26.5 | 18.6 | 27.9 |  |  |  |  |  |  |  |  |  |  |
| CCOC(=O)c1nc2cc(N3CCOCC3)c(F)cc2[nH]c1=O | > 100 | > 100 | > 100 | > 100 | > 100 | > 100 | > 100 | > 100 | > 100 | > 100 |  |  |  |  |  |  |  |  |  |  |

— PubChem BioAssay (NCI)
